Laboratory results taken from ChEMBL document CHEMBL2311316, “Synthesis and biological evaluation of ¹⁸F labeled fluoro-oligo-ethoxylated 4-benzylpiperazine derivatives for sigma-1 receptor imaging” (Bioorg Med Chem, 2013).

Legend:
Rattus norvegicus = organism: Rattus norvegicus; experiment: Selectivity index, ratio of Ki for sigma2 receptor in rat liver membranes to Ki for sigma1 receptor in rat brain membranes; type: cell membranes
[1] = Displacement of [3H]ditolyguanidine from sigma2 receptor in rat liver membranes; type: cell membranes, Membrane
[2] = target: Sigma non-opioid intracellular receptor 1 (Rattus norvegicus, UniProt Q9R0C9); experiment: Displacement of (+)-[3H]pentazocine from sigma1 receptor in rat brain membranes; type: cell membranes
[3] = target: T1, Vesicular acetylcholine transporter (Homo sapiens, UniProt Q16572); experiment: Binding affinity to VAChT (unknown origin)
T1 sequence (Q16572 whole entry): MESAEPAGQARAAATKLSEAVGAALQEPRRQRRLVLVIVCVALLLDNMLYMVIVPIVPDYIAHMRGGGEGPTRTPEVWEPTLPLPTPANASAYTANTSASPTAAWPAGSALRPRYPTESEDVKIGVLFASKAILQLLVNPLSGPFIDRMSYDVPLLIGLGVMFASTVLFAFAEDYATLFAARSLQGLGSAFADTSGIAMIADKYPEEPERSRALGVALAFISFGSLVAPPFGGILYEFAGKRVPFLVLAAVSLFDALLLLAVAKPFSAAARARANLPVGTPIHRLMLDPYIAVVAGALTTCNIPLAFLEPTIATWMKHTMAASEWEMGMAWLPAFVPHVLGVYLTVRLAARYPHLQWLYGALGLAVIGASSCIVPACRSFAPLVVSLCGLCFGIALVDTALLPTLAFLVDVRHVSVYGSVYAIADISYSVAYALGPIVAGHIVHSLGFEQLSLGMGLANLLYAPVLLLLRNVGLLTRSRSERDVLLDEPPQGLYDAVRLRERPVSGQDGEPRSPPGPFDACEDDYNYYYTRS

Brain = experiment: Specific drug uptake in ICR mouse brain at 4 uCi, iv measured 60 mins post dose; type: ADME, organism-based; settings: in vivo, 1 h

Sigma non-opioid intracellular receptor 1, sequence (Q9R0C9 whole entry): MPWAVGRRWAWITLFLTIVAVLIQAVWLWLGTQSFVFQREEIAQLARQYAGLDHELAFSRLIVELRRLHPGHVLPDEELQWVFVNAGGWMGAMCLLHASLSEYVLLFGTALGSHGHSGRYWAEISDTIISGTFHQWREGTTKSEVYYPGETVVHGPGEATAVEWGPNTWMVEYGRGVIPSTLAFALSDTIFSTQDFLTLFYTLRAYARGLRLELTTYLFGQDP

Compound `FCCOCCOc1ccc(CN2CCN(Cc3ccc4c(c3)OCO4)CC2)cc1` has a Ratio Ki (Rattus norvegicus) of 16.4, a Ki [1] of 666 nM and a Ki [2] of 40.7 nM.
In the case of `[17F]CCC1OC2(CCN(Cc3ccccc3)CC2)c2ccccc21` (configuration not stated) [[18F]FLUSPIDINE], the Ki [3] is reported as 211 nM and the Drug uptake (Brain) is reported as 62%.
`O=C(CCCN1CCC(O)(c2ccc(Cl)cc2)CC1)c1ccc(F)cc1` [HALOPERIDOL] gave a Ki [1] of 20.7 nM.
In the case of `FCCOCCOCCOc1ccc(CN2CCN(Cc3ccc4c(c3)OCO4)CC2)cc1`, the Ratio Ki (Rattus norvegicus) is reported as 2.81, the Ki [1] is reported as 1420 nM and the Ki [2] is reported as 505 nM.
For `FCCOc1ccc(CN2CCN(Cc3ccc4c(c3)OCO4)CC2)cc1`, the Ratio Ki (Rattus norvegicus) was 157, the Ki [1] was 291 nM and the Ki [2] was 1.85 nM.
